The structures appear in SMILES notation. pIC50: −log10 of the molar value. Where a name gives a salt, the structure may show the parent alone.

By melting point is commonly meant the temperature of the solid-liquid transition. Broadly, the pIC50 is the negative decadic logarithm of the IC50, by convention in mol/L. Read a high pIC50 as a small IC50.

Data set [1] concerns the target T1, N-type Ca2+ channel (Homo sapiens, UniProt Q00975).
T1 construct: host or cells: IMR-32 cells, differentiated with dibutyryl cAMP and bromodeoxyuridine
Briefly: Measurement of N-type Ca2+ channel blocking potencies in IMR-32 cells using the fluorescent Ca2+ indicator Indo-1. In kind it is cell-based. The note with it: for pIC50: K+-stimulated Ca2+ flux, 5 μM nitrendipine to block L-type channels, some values marked (est.); for IMR-32 % of Blockade @ μM: 5 μM nitrendipine. Here is the method: Measurement of N-type Ca^2+ Channel Blocking Potencies of Compounds in IMR-32 Cells Using the Fluorescent Ca^2+ Indicator Indo-1
IMR-32 cells are a human tumoral cell line of neural origin. […] Calcium flux into these cells may be induced by stimulation with elevated potassium concentrations. The L-channel component of calcium flux may be blocked by adding 5 μM nitrendipine. The remaining component of calcium entry into the IMR-32 cells is due to calcium flux through N-type calcium channels. Intracellular calcium concentrations are measured using the fluorescent calcium indicator Indo-1. The effect of drug concentration on calcium uptake is studied.
The IMR-32 cell line was obtained from the American Type Culture Collection (Rockville, Md.). Cells were grown in Eagle's Minimum Essential Medium with Earle's salts supplemented with 10% fetal bovine serum, 2 mM L-Gln and antibiotic/antimycotic mixture (Gibco). At approximately 80% confluency, differentiation was induced by the addition of 1 mM dibutyryl cAMP and 2.5 μM bromodeoxyuridine to the medium. After 7 to 13 days of differentiation, cells were detached using 0.5 mM EDTA and loaded with 5 μM Indo-1 acetoxymethyl ester (Molecular Probes, Eugene, Oreg.) at 30° C. for 45 minutes Loaded cells were washed twice, resuspended (˜10^7 cells/mL) in assay buffer (10 mM HEPES/Tris pH 7.4 in Hank's Balanced Salt Solution without bicarbonate or phenol red containing 0.5% bovine serum albumin) and kept on ice until use. Fluorescence measurements were carried out in a Photon Technology International (PTI, South Brunswick, N.J.) Model RF-F3004 spectrofluorometer with dual emission monochromators using excitation at 350 nm and emission at 400 and 490 nm. The instrument was equipped with a thermostated cuvette holder with stirring capabilities, as well as with a computer-controlled pump which allowed for reagent addition during measurement. Instrument control and data collection was done by PTI's OSCAR software running on an IBM compatible computer. Different concentrations of the test compounds (60 μL in dimethyl sulfoxide) were added to 5.94 mL of assay buffer containing approximately 3×10^6 loaded cells, and 5 μM nitrendipine (in 30 μL EtOH) to block L-type Ca^2+ channels. Samples were incubated for 10 minutes at 30° C. and then aliquoted into three 10×10 mm disposable acrylic cuvettes. Emission signals at 400 and 490 nm were acquired from each cuvette at 30° C. for 50 seconds. At 20 seconds after the start of reading, cells were depolarized by the addition of 160 μL of stimulation solution (1 M KCl, 68 mM CaCl2) to the cuvette via the computer-controlled pump. Ratio of dual emission signals (400 nm/490 nm), which is proportional to intracellular Ca^2+ concentration, was plotted against time, and the difference between maximal response after stimulation and basal value (before stimulation) was determined. Values obtained in this way were plotted as a function of drug concentration. IC50 values of test compounds were calculated by fitting a 4-parameter logistic function to the data using the least squares method.
(Calcium assays in cells follow changes in intracellular calcium, usually with a dye or a luminescent sensor.)

The subject of data set [2] is DBA/2 mice. As to the kind of experiment: Audiogenic (sound-induced) seizure test in DBA/2 mice, protection from tonic seizures. In kind it is in vivo. Particulars: 30 mg/kg, intravenous, tested 15 or 45 minutes after injection. On the procedure:
In Vivo Biological Protocol
A compound of the present invention was dissolved in water using 10% (weight/volume) Emulphor (GAF Corp., Wayne, N.J.) surfactant. Substances were administered by intravenous injection into the retro-orbital venous sinus. All testing was performed 15 minutes or 45 minutes after drug injection. All the male mice, 3 to 4 weeks old, were obtained from Jackson Laboratories, Bar Harbour, Me. Immediately before anticonvulsant testing, mice were placed upon a wire mesh, 4 inches square suspended from a steel rod. The square was slowly inverted through 180 degree and mice observed for 30 seconds. Any mouse falling from the wire mesh was scored as ataxia.
Mice were placed into an enclosed acrylic plastic chamber (21 cm height, approximately 30 cm diameter) with a high-frequency speaker (4 cm diameter) in the center of the top lid. An audio signal generator (Protek Model B-810) was used to produce a continuous sinusoidal tone that was swept linearly in frequency between 8 kHz and 16 kHz once each 10 msec. The average sound pressure level (SPL) during stimulation was approximately 100 dB at the floor of the chamber. Mice were placed within the chamber and allowed to acclimatize for 1 minute. DBA/2 mice in the vehicle-treated group responded to the sound stimulus (applied until tonic extension occurred, or for a maximum of 60 sec) with a characteristic seizure sequence consisting of wild running followed by clonic seizures, and later by tonic extension, and finally by respiratory arrest and death in 80% or more of the mice. In vehicle-treated mice, the entire sequence of seizures to respiratory arrest lasts approximately 15 to 20 seconds.
The incidence of all the seizure phases in the drug-treated and vehicle-treated mice was recorded, and the occurrence of tonic seizures were used for calculating anticonvulsant ED50 values by probit analysis. Mice were used only once for testing at each time and dose point.

T1 sequence (Q00975 whole entry): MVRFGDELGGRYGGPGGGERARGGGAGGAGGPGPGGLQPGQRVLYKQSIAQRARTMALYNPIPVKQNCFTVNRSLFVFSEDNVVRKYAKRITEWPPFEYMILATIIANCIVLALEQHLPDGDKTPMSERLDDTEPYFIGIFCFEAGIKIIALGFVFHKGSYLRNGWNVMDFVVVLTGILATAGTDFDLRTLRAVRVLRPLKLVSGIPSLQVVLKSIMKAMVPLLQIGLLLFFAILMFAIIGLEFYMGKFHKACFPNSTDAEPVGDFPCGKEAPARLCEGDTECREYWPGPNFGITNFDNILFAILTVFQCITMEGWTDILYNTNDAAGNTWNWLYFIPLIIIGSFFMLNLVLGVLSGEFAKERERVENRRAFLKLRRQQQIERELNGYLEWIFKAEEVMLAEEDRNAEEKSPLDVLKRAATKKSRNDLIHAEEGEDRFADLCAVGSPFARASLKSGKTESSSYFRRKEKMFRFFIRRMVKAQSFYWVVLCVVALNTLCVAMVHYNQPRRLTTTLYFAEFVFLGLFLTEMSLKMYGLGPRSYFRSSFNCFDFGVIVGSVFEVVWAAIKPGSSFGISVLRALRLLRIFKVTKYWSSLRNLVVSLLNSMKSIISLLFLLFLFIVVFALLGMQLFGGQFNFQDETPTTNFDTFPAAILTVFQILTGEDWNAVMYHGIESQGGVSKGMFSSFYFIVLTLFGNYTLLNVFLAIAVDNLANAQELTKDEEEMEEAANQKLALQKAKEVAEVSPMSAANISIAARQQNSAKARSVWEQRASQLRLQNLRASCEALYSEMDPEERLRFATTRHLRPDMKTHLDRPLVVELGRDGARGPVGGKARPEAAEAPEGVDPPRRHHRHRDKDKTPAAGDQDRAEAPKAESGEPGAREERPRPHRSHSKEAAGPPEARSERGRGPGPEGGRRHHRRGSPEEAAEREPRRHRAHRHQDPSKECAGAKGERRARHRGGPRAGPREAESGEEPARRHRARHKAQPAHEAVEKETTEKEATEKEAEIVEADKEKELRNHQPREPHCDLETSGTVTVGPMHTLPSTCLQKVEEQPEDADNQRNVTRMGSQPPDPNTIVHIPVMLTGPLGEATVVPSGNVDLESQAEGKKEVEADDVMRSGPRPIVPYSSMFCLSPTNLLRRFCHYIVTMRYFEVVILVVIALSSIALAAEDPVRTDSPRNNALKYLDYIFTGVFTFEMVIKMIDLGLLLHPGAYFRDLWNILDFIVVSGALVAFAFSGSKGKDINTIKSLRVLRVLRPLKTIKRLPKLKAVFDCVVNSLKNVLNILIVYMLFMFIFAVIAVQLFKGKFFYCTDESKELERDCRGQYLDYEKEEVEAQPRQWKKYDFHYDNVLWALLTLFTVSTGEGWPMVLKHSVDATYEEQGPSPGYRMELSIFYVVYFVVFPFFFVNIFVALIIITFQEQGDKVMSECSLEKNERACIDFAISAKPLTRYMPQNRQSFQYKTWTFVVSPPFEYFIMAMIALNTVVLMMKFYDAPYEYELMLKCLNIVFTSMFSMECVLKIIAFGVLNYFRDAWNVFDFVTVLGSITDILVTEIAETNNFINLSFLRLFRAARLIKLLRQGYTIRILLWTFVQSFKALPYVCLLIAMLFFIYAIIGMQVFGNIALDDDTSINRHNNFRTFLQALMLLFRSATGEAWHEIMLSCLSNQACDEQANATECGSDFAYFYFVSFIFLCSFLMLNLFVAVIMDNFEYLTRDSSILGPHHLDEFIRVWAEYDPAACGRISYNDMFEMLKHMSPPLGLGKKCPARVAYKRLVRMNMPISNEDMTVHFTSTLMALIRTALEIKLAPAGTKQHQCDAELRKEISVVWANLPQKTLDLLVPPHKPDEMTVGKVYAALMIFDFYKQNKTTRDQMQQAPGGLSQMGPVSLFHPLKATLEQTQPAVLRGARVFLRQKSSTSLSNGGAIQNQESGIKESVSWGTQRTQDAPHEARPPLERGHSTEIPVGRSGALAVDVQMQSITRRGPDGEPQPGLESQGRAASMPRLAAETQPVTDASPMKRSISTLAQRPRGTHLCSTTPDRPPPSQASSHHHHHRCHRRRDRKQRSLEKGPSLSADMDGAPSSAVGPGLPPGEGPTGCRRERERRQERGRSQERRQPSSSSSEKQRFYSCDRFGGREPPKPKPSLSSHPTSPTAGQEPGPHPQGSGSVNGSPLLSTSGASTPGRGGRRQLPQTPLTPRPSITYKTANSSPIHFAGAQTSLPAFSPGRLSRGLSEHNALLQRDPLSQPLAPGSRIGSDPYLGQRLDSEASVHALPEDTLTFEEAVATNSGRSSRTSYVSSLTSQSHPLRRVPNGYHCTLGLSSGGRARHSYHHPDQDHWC
T1 sequence (P54289 25-956 partner limits assumed): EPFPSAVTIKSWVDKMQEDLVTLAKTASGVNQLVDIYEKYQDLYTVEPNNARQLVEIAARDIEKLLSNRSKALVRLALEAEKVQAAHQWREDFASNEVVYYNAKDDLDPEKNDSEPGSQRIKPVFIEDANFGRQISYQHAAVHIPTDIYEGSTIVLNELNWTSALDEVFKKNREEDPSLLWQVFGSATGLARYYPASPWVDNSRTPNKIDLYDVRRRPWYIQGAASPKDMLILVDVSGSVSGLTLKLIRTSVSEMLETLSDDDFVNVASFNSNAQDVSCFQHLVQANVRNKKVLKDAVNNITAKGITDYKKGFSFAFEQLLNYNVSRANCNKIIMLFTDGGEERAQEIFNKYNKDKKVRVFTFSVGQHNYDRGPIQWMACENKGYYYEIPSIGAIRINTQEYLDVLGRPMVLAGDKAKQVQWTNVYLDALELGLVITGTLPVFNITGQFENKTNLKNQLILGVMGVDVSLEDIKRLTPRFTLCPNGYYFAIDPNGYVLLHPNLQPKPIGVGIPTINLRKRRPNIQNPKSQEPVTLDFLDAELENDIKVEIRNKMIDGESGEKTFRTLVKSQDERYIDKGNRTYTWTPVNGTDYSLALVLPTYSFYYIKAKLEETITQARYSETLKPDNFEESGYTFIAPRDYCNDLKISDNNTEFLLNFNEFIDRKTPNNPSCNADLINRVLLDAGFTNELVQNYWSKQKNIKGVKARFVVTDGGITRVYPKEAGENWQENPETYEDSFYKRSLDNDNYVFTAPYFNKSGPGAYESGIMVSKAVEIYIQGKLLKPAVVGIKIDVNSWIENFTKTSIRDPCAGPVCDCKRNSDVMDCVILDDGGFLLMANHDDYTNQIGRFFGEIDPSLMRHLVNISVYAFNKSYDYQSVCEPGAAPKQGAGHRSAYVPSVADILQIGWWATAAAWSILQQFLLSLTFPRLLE
T1 sequence (P54289 957-1103 partner limits assumed): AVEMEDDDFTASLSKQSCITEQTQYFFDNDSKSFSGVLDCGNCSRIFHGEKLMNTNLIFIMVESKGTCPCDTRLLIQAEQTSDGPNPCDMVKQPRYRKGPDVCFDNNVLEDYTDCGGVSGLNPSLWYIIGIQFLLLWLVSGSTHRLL
T1 sequence (P54284 whole entry partner): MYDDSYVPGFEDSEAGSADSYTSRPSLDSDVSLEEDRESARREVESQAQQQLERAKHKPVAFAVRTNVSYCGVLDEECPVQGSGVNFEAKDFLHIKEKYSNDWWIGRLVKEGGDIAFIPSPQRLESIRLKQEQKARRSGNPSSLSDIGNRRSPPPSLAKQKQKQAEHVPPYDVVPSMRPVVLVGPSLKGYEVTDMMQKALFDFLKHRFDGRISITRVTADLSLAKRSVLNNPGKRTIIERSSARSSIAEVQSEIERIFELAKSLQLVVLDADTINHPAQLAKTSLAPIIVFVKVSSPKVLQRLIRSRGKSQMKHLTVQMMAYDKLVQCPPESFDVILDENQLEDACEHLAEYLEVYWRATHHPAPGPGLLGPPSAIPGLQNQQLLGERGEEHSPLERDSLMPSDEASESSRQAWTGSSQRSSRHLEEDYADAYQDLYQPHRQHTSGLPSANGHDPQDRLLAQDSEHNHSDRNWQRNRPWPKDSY

`CC(C)(C)NC(=O)[C@H](Cc1ccc(OCc2ccccc2)cc1)NC(=O)[C@H](Cc1ccncc1)NC1C=CCCC1` (stereo partly drawn) (as salt: HCl) [Example 2, [S-(R*,R*)]—N-[2-(4-Benzyloxy-phenyl)-1-tert-butylcarbamoyl-ethyl]-2-(cyclohex-2-enylamino)-3-pyridin-4-yl-propionamide] displayed a melting point of 163 to 164 °C. `CC(C)(C)NC(=O)[C@H](Cc1ccc(OCc2ccccc2)cc1)NC(=O)[C@H](Cc1c[nH]cn1)NCC1CCCCC1` [Example 8, [S—(R*,R*)]—N-[2-(4-Benzyloxy-phenyl)-1-tert-butylcarbamoyl-ethyl]-2-(cyclohexylmethyl-amino)-3-(1H-imidazol-4-yl)-propionamide]: the pIC50 in data set [1] was 6.17.

As for `CC(C)(C)NC(=O)[C@H](Cc1ccc(OCc2ccccc2)cc1)NC(=O)[C@H](Cc1cscn1)NC1CCCCC1` (relative stereo) [Example 7, [S—(R*,R*)]-N-[2-(4-Benzyloxy-phenyl)-1-tert-butylcarbamoyl-ethyl]-2-cyclohexylamino-3-thiazol-4-yl-propionamide], the “IMR-32 % of Blockade @ μM” value in data set [1] (@ 1 μM) came out at 67%; in data set [1] (@ 10 μM), 95%.

With `CC(C)(C)NC(=O)[C@H](Cc1ccc(OCc2ccccc2)cc1)NC(=O)[C@H](Cc1c[nH]cn1)NCC1CCCCC1` (as salt: salt) [Example 8, [S—(R*,R*)]—N-[2-(4-Benzyloxy-phenyl)-1-tert-butylcarbamoyl-ethyl]-2-(cyclohexylmethyl-amino)-3-(1H-imidazol-4-yl)-propionamide], the melting point was 163 to 165 °C. In data set [1], `CC(C)(C)NC(=O)[C@H](Cc1ccc(OCc2ccccc2)cc1)NC(=O)[C@H](Cc1ccncc1)NC1C=CCCC1` (stereo partly drawn) [Example 2, [S-(R*,R*)]—N-[2-(4-Benzyloxy-phenyl)-1-tert-butylcarbamoyl-ethyl]-2-(cyclohex-2-enylamino)-3-pyridin-4-yl-propionamide] showed a pIC50 of 5.89. Regarding `CC(C)N[C@@H](Cc1c[nH]cn1)C(=O)N[C@@H](Cc1ccc(OCc2ccccc2)cc1)C(=O)NC(C)(C)C` (relative stereo) [Example 9, [S—(R*,R*)]N-[2-(4-Benzyloxy-phenyl)-1-tert-butylcarbamoyl-ethyl]-2-(1-methylethyl-amino)-3-(1H-imidazol-4-yl)-propionamide], the “IMR-32 % of Blockade @ μM” value in data set [1] (@ 1 μM) was found to be 11%; in data set [1] (@ 10 μM), 55%. On to `CC(C)CCN[C@@H](Cc1cscn1)C(=O)NC(Cc1ccc(OCc2ccccc2)cc1)C(=O)NC(C)(C)C` (stereo in doubt) [Example 5, [S—(R*,R*)]—N-[2-(4-Benzyloxy-phenyl)-1-tert-butylcarbamoyl-ethyl]-2-(3-methyl-butylamino)-3-thiazol-4-yl-propionamide], for which the “IMR-32 % of Blockade @ μM” value in data set [1] (@ 1 μM) worked out at 79%; in data set [1] (@ 10 μM) it was 97%. Further, the “DBA/2 mice % protection (dose)” value in data set [2] was 100% @ 30 mg/kg. For `CC(C)CCN[C@@H](Cc1ccncc1)C(=O)N[C@@H](Cc1ccc(OCc2ccccc2)cc1)C(=O)NC(C)(C)C` [Example 1, [S—(R*,R*)]—N-[2-(4-Benzyloxy-phenyl)-1-tert-butylcarbamoyl-ethyl]-2-(3-methyl-butylamino)-3-pyridin-4-yl-propionamide], the pIC50 in data set [1] is 6.40. `CC(C)CCN[C@@H](Cc1cccnc1)C(=O)NC(Cc1ccc(OCc2ccccc2)cc1)C(=O)NC(C)(C)C` (stereo in doubt) [Example 3, [S-(R*,R*)]—N-[2-(4-Benzyloxy-phenyl)-1-tert-butylcarbamoyl-ethyl]-2-(3-methyl-butylamino)-3-pyridin-3-yl-propionamide] had a pIC50 in data set [1] of 6.11. In data set [2], the “DBA/2 mice % protection (dose)” value amounted to 80% @ 30 mg/kg. With `CC(C)(C)NC(=O)[C@H](Cc1ccc(OCc2ccccc2)cc1)NC(=O)[C@H](Cc1cscn1)NC1C=CCCC1` (stereo partly drawn) [Example 6, [S—(R*,R*)]—N-[2-(4-Benzyloxy-phenyl)-1-tert-butylcarbamoyl-ethyl]-2-(cyclohex-2-enylamino)-3-thiazol-4-yl-propionamide], in data set [1], the pIC50 is 5.96. `CC(C)(C)NC(=O)[C@H](Cc1ccc(OCc2ccccc2)cc1)NC(=O)[C@H](Cc1cccnc1)NC1C=CCCC1` (stereo partly drawn) [Example 4, [S—(R*,R*)]—N-[2-(4-Benzyloxy-phenyl)-1-tert-butylcarbamoyl-ethyl]-2-(cyclohex-2-enylamino)-3-pyridin-3-yl-propionamide] showed a pIC50 in data set [1] of 6.00. In addition, in data set [2], the “DBA/2 mice % protection (dose)” value is listed as 60% @ 30 mg/kg.

For the compound `CC(C)(C)NC(=O)[C@H](Cc1ccc(OCc2ccccc2)cc1)NC(=O)[C@H](Cc1cscn1)NC1C=CCCC1` (stereo partly drawn) (as salt: HCl) [Example 6, [S—(R*,R*)]—N-[2-(4-Benzyloxy-phenyl)-1-tert-butylcarbamoyl-ethyl]-2-(cyclohex-2-enylamino)-3-thiazol-4-yl-propionamide], the melting point fell in the range of 243 to 244 °C.

These data come from patent US6989448B2, “Heteroaryl alkyl alpha substituted peptidylamine calcium channel blockers” (priority 1998, dated 2006).
